In patent publication US20080118494A1, “Compositions For Detection Of Latent Hiv Reactivation And Methods Of Using The Same” (priority 2004, published 2008):

Key:
Type in all cases: cell-based
[1] = test system: CD28 mediated HIV-1 reactivation in J89GFP cells; test: Inhibition of activating anti-CD28 antibody (5D10) mediated HIV-1 reactivation in J89GFP cells; details: J89GFP pretreated, then stimulated with 5D10; inhibitors 1 μM
Protocol: The results are representative for five independent experiments. […] (C) J89GFP cells were pretreated for two hours with the specific ERK-inhibitor U0126 (control: U0124) or the specific p38-inhibitor SB202190 (control: SB202474) and then stimulated with activating anti-CD28 antibody 5D10 (1 μg/ml). Level of reactivation was measured as %-EGFP^+ cells using flow cytometry. Results represent the mean ±S.D. of three independent experiments.

[2] = test system: JEGFP cells; details: 10,000 JEGFP cells/well, 384-well plate, increasing amounts of compound
Protocol: JEGFP cells were seeded at a cell density of 1×10^4 cells/well into a 384-well plate and left untreated (Control) or treated with a low concentration of daunorubicin (0.0001 μg/ml). EGFP fluorescence as a measure of cell proliferation was then determined over a period of four days.
Influence of altered cell proliferation, cell viability and compound auto-fluorescence on EGFP fluorescence intensity. […] For example, compounds that have fluorochrome characteristics in the same excitation and emission range as EGFP can unspecifically increase the fluorescence signal and can cause false positive hits. On the other hand, too high concentrations of compounds that can reactivate latent HIV-1 infection, but within the chosen concentration range, either inhibit cell proliferation or decrease cell viability can result in false negative hits. […] Compounds that unspecifically increase EGFP expression in the latently infected LWI cells due to their fluorochrome characteristics also increase EGFP fluorescence in these cells, and can be detected as false positive hits. […] As JEGFP cells divide every 24 h and EGFP fluorescence intensity, when measured by plate based fluorometry, directly correlates with the cell density (FIG. 5), any influence of the tested compound on cell proliferation or cell viability can be immediately indicated by a drop in EGFP fluorescence. […]

[3] = test system: HIV-1 Tat / HIV-1 transcription in J89GFP cells; test: Suppression of TNF-α mediated HIV-1 reactivation in J89GFP cells by Tat inhibitor; details: 10 μM
Protocol: EGFP expression following TNF-α (1 ng/ml) mediated reactivation of latent HIV-1 infection in J89GFP cells in the presence or absence of Ro24-7429 (10 μM). Following stimulation, area (A+B) represents the total amount of virus produced over a two day period of time, whereas area B represents the amount of virus produced in the presence of Ro24-7429. Results represent the mean ±S.D. of three independent experiments.
The latently HIV-1 infected reporter T cell line J89GFP (Kutsch et al., 2002) was pretreated with the respective compound and then stimulated with various concentrations of TNF-α. As reactivation of latent HIV-1 is dependent on Tat activity, a sufficiently potent Tat inhibitor would suppress HIV-1 reactivation as indicated by […] in EGFP fluorescence. […] Levels of reactivation with respect to the percentage of HIV-1 positive cells, as well as the EGFP MCF intensity were identical. Whereas EGFP expression in TNF-α treated J89GFP in the absence of Ro24-7429 continued to increase until 96 h post stimulation, EGFP MCF peaked after 48 h, reaching 50% of the maximal EGFP MCF seen in the absence of Ro24-7429, and the slowly declined again (FIG. 14). The observed increase of EGFP fluorescence in TNF-α treated J89GFP cells can be described as an invasion kinetics of the first order, whereas the kinetics of EGFP expression following TNF-α mediated reactivation of HIV-1 in the presence of Ro24-7429 can be best described by a Bateman function, that describes onset and elimination of HIV-1 expression. Again, integration of the equation describing each curve allows for the determination of the relative amount of virus being produced in the critical 2 days time frame. Area (A+B) represents the amount of virus produced following reactivation, and Area B represents the amount of virus produced in the presence of Ro24-7429.

[4] = test system: latent HIV-1 infection in bulk population of latently infected JLTRG cells; test: Reactivation of latent HIV-1 in a bulk population of latently infected cells, flow cytometry; details: optimal concentration of each compound, day 57 bulk population, 100,000 viable cells counted
Protocol: (A) Jurkat cells were infected with an EGFP expressing, replication incompetent reporter virus and the level of productive HIV-1 infection at each indicated time-point was directly assessed by flow cytometric analysis for EGFP expression (untreated; black circles). Levels of initial non-productive and later on latent HIV-1 infection was determined 24 hours following TNF-α stimulation (black squares). The results represent the mean ±S.D. of three independent experiments.
a) Quantification of the HIV-1 reactivating capabilities of test compounds. Following infection, HIV-1 integrates into the cellular genome. Integration is random, although HIV-1 preferentially integrates into euchromatin structures. Latency development can be thus influenced by a multitude of factors that alter gene expression or DNA structure, such as divergent gene expression patterns or the cell cycle stage at the time point of viral integration. Although the reporter cell lines are representative for the majority of latently infected cells and reliably identify most reactivating agents during the screening effort, they can not allow quantification of the capability of the individual compounds to reactivate HIV-1 infection from a diverse population of latently infected cells. To account for the influence that the side of integration of a latent virus can have on a compounds ability to reactivate the virus, a bulk population of latently infected cells (FIG. 7) was established. Following infection of JLTRG cells with HIV-1 NL43, a rapid increase of the level of infection can be observed. On day 3, an average 27% of the cells were productively infected. […] Until day 15, the percentage of productively infected cells rapidly declined to 3% of the overall cell population. At this time point, an additional 5% of the cells were non-productively infected. […] Since 1×10^6 cells were initially infected, and virus mediated inhibition of cell proliferation influences the relative level of infection over time can be excluded, it can be calculated that the latently infected cell population should consist of […] individual latently infected cells. This bulk population of cells allows quantification of the capability of the respective compounds to reactivate latent HIV-1. […] Each compound was titrated over a two-log concentration range to allow for optimal reactivation. The results for the optimal concentration of each compound are depicted in FIG. 7B. […] TNF-α (10 ng/ml) reactivated latent HIV-1 infection in 5% of the cells, whereas the DNA histone deacetylase inhibitors trichostatin A (TSA) and sodium butyrate (NaBu) reactivated latent HIV-1 infection in only 3% or 2.5% of the cells, respectively. To achieve an accurate estimate of the differences in the capability of different agents to reactivate HIV-1 infection it is important to run a sufficiently high number of cells. For this flow cytometry based analysis, 100,000 cells viable per sample were counted.

With `N#CC(=C(/N)Sc1ccccc1N)/C(C#N)=C(\N)Sc1ccccc1N` [U0126] as the compound, how does the “effect on HIV-1 reactivation by activating anti-CD28 antibody” value [1] read?
The value was “efficiently abrogated the activating effect of the antibody and blocked HIV-1 reactivation”.

`COc1cccc2c1C(=O)c1c(O)c3c(c(O)c1C2=O)C[C@@](O)(C(C)=O)C[C@@H]3O[C@H]1C[C@H](N)[C@H](O)[C@H](C)O1` [daunorubicin] was tested. Which “EGFP expression as measure of cell proliferation/viability” value [2] did it give?
Its value is “sharp drop in EGFP expression”.

What does the source list for `CNC1=Nc2ccc(Cl)cc2C(c2ccc[nH]2)=NC1` [Ro24-7429]?
influence on the level of HIV-1 expression during the first 24 h ([3]; TNF-α 1 ng/ml, first 24 h): had no influence on the level of HIV-1 expression; inhibition of virus production ([3]; TNF-α 1 ng/ml, initial 2 days period, from integration of EGFP curves): 20%; peak EGFP MCF relative to maximal EGFP MCF in the absence of inhibitor ([3]; TNF-α 1 ng/ml, peak after 48 h): 50%; suppression of reactivation of latent HIV-1 ([3]; in the presence of 1 ng/ml TNF-α): not capable of suppressing reactivation of latent HIV-1 infection

Which “cells in which latent HIV-1 infection was reactivated” value (shortened to “cells”) [4] does the source give for `CC(=O)O[C@@]12C[C@@H](C)[C@@]3(O)[C@@H](C=C(CO)C[C@]4(O)C(=O)C(C)=C[C@@H]34)[C@@H]1C2(C)C` [prostratin] here?
The value was 6%.

With `Oc1ccc(-c2nc(-c3ccncc3)c(-c3ccc(F)cc3)[nH]2)cc1` [SB202190] as the compound, how does the “effect on HIV-1 reactivation by activating anti-CD28 antibody” value [1] read?
The value was “efficiently abrogated the activating effect of the antibody and blocked HIV-1 reactivation”.

Which “cells” value [4] does the source give for `CCCC(=O)[O-].[Na+]` [NaBu, sodium butyrate] here?
The value was 2.5%.

Which “cells” value [4] does the source give for `CC(/C=C/C(=O)NO)=C\[C@@H](C)C(=O)c1ccc(N(C)C)cc1` [TSA, trichostatin A] here?
The value was 3%.
